For data set [1], the target named is truncated human beta-secretase, BACE1 (amino acids 1-454) (Homo sapiens (Human), UniProt P56817). As to the kind of experiment: BACE1 Assay (Assay 1), fluorescence quench assay. It is filed as biochemical. The settings on record: pH 4.4. Here is the method: The substrate was dissolved at 1 mg/ml in DMSO.
The assay was performed in the presence of OptiMEM™ (supernatant collected over 24 h and cleared from cellular debris by centrifugation) containing the ectodomain of BACE1, 25 μl water containing the desired 2-fold concentration of test compound and 2% DMSO, 1 μM substrate peptide, 20 mM NaOAc, pH 4.4, and 0.04% Triton-X100 in a total assay volume of 50 μl in a 384 well plate. In general, 25 μl of compound dilution were added to the plate followed by the addition of 10 μl of BACE1 containing OptiMEM™ diluted 1:10 in water with 0.2% Triton X-100. The reaction was started with the addition of 15 μl substrate in NaOAc buffer. The reaction was incubated at rt (dark) in an Envision® multilabel reader (Perkin Elmer) and the cleavage of the substrate was recorded as kinetic for […] at ex: 485 nm, em: 538 nm. Blank wells containing no enzyme were included on each plate.
The intensity of fluorescence was regressed against time in order to derive velocities of reaction in all 384 wells. These velocities were used for calculating percent control using an uninhibited control containing 1% DMSO as 100% and a blank control performed in the absence of enzyme as 0%. IC50 values were calculated by fitting percent control vs. test compound concentration using Assay Explorer®.

The nature of data set [2]: In Vitro Phospholipidosis Assay (Assay 3), Nile red staining. It counts as cell-based, human. As to conditions: human, first effect concentration, U937 cells, read-out: Phospholipidosis FEC IC50 μM (assay 3). On the procedure: In Vitro Phospholipidosis Assay (Assay 3)
The phospholipidogenic potential of test compounds was assayed using the human hematopoetic U937 cell line. The test principle was to analyze the phospholipid content by staining the cells with the fluorescent dye Nile red.
U937 cells were seeded into cell culture plates at 0.5×10^6 cells/mL in RPMI medium containing 10% FBS, 1% DMSO, and 0.005% gentamicin. The cells were cultivated with or without different concentrations of test compound for 48 h under standard culture conditions.
For harvesting, the cells were centrifuged at 130×g for 4 min and washed once with PBS. Then, 2×0.5 mL cell suspensions were prepared for non-fixed cell measurement (0.5 mL for propidium iodide (PI) viability measurement and 0.5 mL for Nile red measurement).
The remaining cells were fixed with 3.7% formaldehyde for 30 min. After a further centrifugation step, cells were resuspended with 1.3 mL Nile red working solution (1 μg/mL) and incubated for 5 min at rt. The cell suspension was washed twice with 3 mL PBS and centrifuged with 130×g for 4 min. The supernatant was discarded and the cells were resuspended with 0.5 mL PBS and kept for flow cytometry measurement.
For Nile red staining of the 0.5 mL non-fixed cell samples, 50 μL of a ready to use Nile red solution (10 μg/mL) were added per sample. Samples were kept on ice for 5 min. Thereafter, they were washed once with 4 mL PBS (4° C., 250×g for 8 min) and finally resuspended in 400 μL PBS and kept for flow cytometry measurement.
For the viability measurement, 12.5 μL of the ready to use PI solution (10 μg/mL) were added to the 0.5 mL non-fixed cell suspension. After 15 min of incubation on ice, the samples were measured by flow cytometry using a Coulter Epics XL/MCL flow cytometer.
The viability of the cells of each sample was determined by flow cytometry measurement of the PI content at channel 2 (568-590 nm). Cut-off gates for the fluorescence-dependent differentiation between live and dead cells were defined based on the analysis of cell culture medium control samples.
Only samples with a cell viability of >=90% relative to control samples were analyzed for phospholipidosis. Each Nile red sample (non-fixed and fixed samples) was measured by flow cytometry at channel 1 (504-541 nm) and channel 4 (660-680 nm).
For each channel, relative Nile red fluorescence intensity of a test sample was calculated compared to control samples and expressed as a percentage of control fluorescence intensity. The assessment of the phospholipidogenic potential and the first effective concentration (FEC) of a test compound was done manually based on the fluorescence intensities at both wavelengths for the fixed cells, as well as for the non-fixed cells.

Molecules are shown by their SMILES.

Sequence of truncated human beta-secretase, BACE1 (amino acids 1-454) (P56817 22-454): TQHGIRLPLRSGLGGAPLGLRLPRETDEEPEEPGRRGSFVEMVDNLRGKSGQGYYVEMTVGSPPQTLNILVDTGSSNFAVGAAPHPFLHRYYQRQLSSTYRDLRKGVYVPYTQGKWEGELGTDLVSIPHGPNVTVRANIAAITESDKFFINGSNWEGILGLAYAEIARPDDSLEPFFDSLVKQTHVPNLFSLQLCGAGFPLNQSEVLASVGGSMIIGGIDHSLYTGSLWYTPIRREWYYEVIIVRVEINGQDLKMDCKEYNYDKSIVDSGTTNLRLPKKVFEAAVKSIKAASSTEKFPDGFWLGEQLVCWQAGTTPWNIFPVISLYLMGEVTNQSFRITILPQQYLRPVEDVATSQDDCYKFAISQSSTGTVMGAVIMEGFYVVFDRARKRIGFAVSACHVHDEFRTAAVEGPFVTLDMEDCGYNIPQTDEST

One may read the IC50 as the concentration that gives 50% inhibition. As for `C[C@@H]1C[C@@]2(Cc3ccc(C#N)cc3[C@]23N=C(N)N(CCC(F)(F)F)C3=O)C[C@H](C)[C@H]1O` [Example 1], in data set [1], the 50% inhibitory concentration (IC50) amounted to 14.6 nM. Besides, the 50% inhibitory concentration (IC50) at 48 h in data set [2] stood at 400 µM.

In the case of `C[C@@H]1C[C@@]2(Cc3ccc(C#N)cc3[C@]23N=C(N)N(CC(C)(C)F)C3=O)C[C@H](C)[C@H]1O` [Example 2], 10.3 nM corresponded to half-maximal inhibition in data set [1] (IC50). In addition, the IC50 at 48 h in data set [2] was determined as 400 µM.

For the compound `C[C@@H]1C[C@@]2(Cc3ccc(C#N)cc3[C@]23N=C(N)N(CC2(F)CCOCC2)C3=O)C[C@H](C)[C@H]1O` [Example 4], the IC50 in data set [1] came to 2.7 nM. For the same compound, the half-maximal inhibitory concentration (IC50) at 48 h in data set [2] was 800 µM.

In data set [1], `CC[C@@H]1C[C@@]2(Cc3ccc(C#N)cc3[C@]23N=C(N)N(CC(C)(C)F)C3=O)C[C@H](C)[C@H]1O` [Example 7] yielded an IC50 of 3.4 nM. In addition, the concentration for half-maximal inhibition (IC50) at 48 h in data set [2] came to 400 µM.

As for `CC[C@@H]1C[C@]2(CC[C@H]1O)Cc1ccc(C#N)cc1[C@]21N=C(N)N(CC(C)(C)F)C1=O` [Example 9], the 50% inhibitory concentration (IC50) in data set [1] turned out to be 10.7 nM. For the same compound, in data set [2], the IC50 at 48 h was determined as 400 µM.

The record behind these values is patent US9018391B2, “Inhibitors of beta-secretase” (Boehringer Ingelheim International GmbH, priority 2012, dated 2015).
